Data as given in US9155795B2, “CXCR4 receptor compounds” (Anchor Therapeutics, Inc., priority 2010, dated 2015).
Like-named read-outs stand apart in the source and are kept apart here. Where a SMILES comes first, the peptide text is derived from it. [ ]: non-standard residue; d: D form. The star is where a group is joined. Palmitoyl = CCCCCCCCCCCCCCCC(=O)*

Legend:
CXCR4 = molecular target: T1, CXCR4 (Homo sapiens, UniProt P61073); experiment: Calcium flux assay, agonist mode, Flexstation (CCRF-CEM cells); format: cell-based; conditions: CCRF-CEM, percent of maximum response compared with SDF-1α, read-out: % Intrinsic Activity
T1 construct: CCRF-CEM cells, a human T-cell ALL line that endogenously expresses CXCR4; endogenous in cells; host or cells: CCRF-CEM (human T-cell acute lymphoblastic leukemia line)

[1] = Pharmacokinetic analysis in mice (plasma, LC/MS); format: in vivo; conditions: for bioavailability / half-life / MRT inf / Tmax: male, mouse, in vivo, 2.5 umol/kg; for half-life / MRT inf / Tmax: sc
Method: To determine the pharmacokinetic profile of the CXCR4 modulators, compounds were administered as single subcutaneous injection to 6-8 week old male mice at doses of either […] (three or four mice/group). […] Dosing of 0.5 μmol/kg or 1 μmol/kg were used for intravenous dosing. […] Mice were sacrificed and blood samples collected at 15 minutes, 30 minutes, 1 hour, 2 hours, 4 hours, 8 hours, and 24 hours after dosing. The concentration of compound in plasma samples was analyzed by LC/MS according to the method below.
To this, 5 μL of the analyte compound in AcN:H2O:FA (70:30:1%) of 100 μM concentration was added to get 5 μM concentration.
Serial calibration standards in plasma or plasma samples were transferred to clean labeled tubes and mixed with 3 volumes of acetonitrile with internal standard, tolbutamide, in order to precipitate proteins. The mixtures were vortexed and centrifuged at 12000 RPM (15320 g) for 10 minutes. Supernatants were transferred to HPLC injection vials or 96-well plates and 5 μL were injected into the LC-MS/MS system.
Noncompartmental pharmacokinetic analyses were performed using WinNonlin Professional (version 5.2) software (Pharsight, Cary, N.C.). The data were analyzed using the extravascular input model. For each subject, pharmacokinetic parameters were calculated individually as follows and then averaged. The maximum drug concentration in plasma, Cmax, and Tmax, the time to achieve Cmax, were calculated directly from the concentration-time curves. The area under the plasma concentration-time curve from hour 0 to the last measurable concentration in plasma, AUClast, was estimated by the linear trapezoidal rule. The area under the plasma concentration-time curve from hour 0 to infinity estimated using the following formula: AUCinf—obs=AUClast+Ct/Lambda_z, where Ct is the last measurable concentration in plasma, and Lambda_z is the terminal elimination rate constant estimated using log-linear regression during the terminal elimination phase. The number of points used in Lambda_z calculation was determined by visual inspection of the data describing the terminal phase and evaluation of the correlation coefficient associated with the regression line. T1/2, the terminal elimination half-life=ln(2)/Lambda_z. Mean residence time MRT, was calculated as following: MRT=(AUMCinf/AUCinf). Subcutaneous absorption bioavailability was calculated as the AUCinf following subcutaneous dosing divided by the AUCinf following intravenous dosing. Results were expressed as percentages.

male BALB/c mice = experiment: Mobilization of polymorphonuclear leukocytes (PMNs) in mice; format: in vivo; conditions: for Lymphocytes (×10^3 μl) Mean ± SD / PMNs (×10^3 μl) Mean ± SD: blood 3 hours after injection
Method: The effect of Compound 26 on mobilization of PMNs following subcutaneous administration was evaluated in mice. […] Louis, Mo.) was administered subcutaneously to 10 mice. […] Neutrophil and lymphocyte counts were determined using a Hemavet Model 950FS cell counter (Drew Scientific, Dallas, Tex.).

T1 sequence (P61073 whole entry): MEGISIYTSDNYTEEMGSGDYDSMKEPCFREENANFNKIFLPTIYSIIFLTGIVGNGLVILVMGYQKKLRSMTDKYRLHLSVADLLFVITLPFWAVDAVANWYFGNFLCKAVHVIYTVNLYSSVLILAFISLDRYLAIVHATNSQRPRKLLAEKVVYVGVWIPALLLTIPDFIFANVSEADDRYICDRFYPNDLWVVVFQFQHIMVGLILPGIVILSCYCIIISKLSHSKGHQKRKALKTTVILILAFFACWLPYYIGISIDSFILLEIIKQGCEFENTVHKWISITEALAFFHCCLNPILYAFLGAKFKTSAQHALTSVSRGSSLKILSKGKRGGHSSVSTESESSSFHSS

Row | bioavailability [1] [%] | MRT inf [1] [h] | Tmax [1] [h] | half-life [1] [min] | SMILES | Emax (CXCR4) [%] | bioavailability ([1]; mice, subcutaneous 2.5 μmol/kg, AUCinf subcutaneous divided by AUCinf intravenous, read-out: Bioavailability (%)) [%] | half-life ([1]; mice, single subcutaneous injection, 2.5 μmol/kg, read-out: Half-life elimination (converted)) [min] | MRT inf ([1]; mice, single subcutaneous injection, 2.5 μmol/kg, read-out: MRT INFobs) [h] | Tmax ([1]; mice, single subcutaneous injection, 2.5 μmol/kg, read-out: Tmax) [h] | bioavailability following subcutaneous administration (comparison in words) ([1]; mice, subcutaneous) | Lymphocytes (×10^3 μl) Mean ± SD (male BALB/c mice; 0.2 μmol/kg subcutaneous) | PMNs (×10^3 μl) Mean ± SD (male BALB/c mice; 0.2 μmol/kg subcutaneous) | Lymphocytes (×10^3 μl) Mean ± SD (male BALB/c mice; 0.66 μmol/kg subcutaneous) | PMNs (×10^3 μl) Mean ± SD (male BALB/c mice; 0.66 μmol/kg subcutaneous) | Lymphocytes (×10^3 μl) Mean ± SD (male BALB/c mice; 2 μmol/kg subcutaneous) | PMNs (×10^3 μl) Mean ± SD (male BALB/c mice; 2 μmol/kg subcutaneous) | Lymphocytes (×10^3 μl) Mean ± SD (male BALB/c mice; 6.66 μmol/kg subcutaneous) | PMNs (×10^3 μl) Mean ± SD (male BALB/c mice; 6.66 μmol/kg subcutaneous) | release of bone marrow PMNs (in words) (male BALB/c mice; systemic, subcutaneous injection)
1 | – | – | – | – | CCCCCCCCCCCCCCCC(=O)NCC(=O)NCC(=O)N[C@@H](Cc1ccc(O)cc1)C(=O)N[C@@H](CCC(N)=O)C(=O)N[C@@H](CCCCN)C(=O)N[C@@H](CCCCN)C(=O)N[C@@H](CC(C)C)C(=O)N[C@@H](CCCNC(=N)N)C(=O)N1CCC[C@@H]1C(=O)N[C@@H](Cc1c[nH]cn1)C(=O)N[C@H](C(=O)N[C@@H](CC(=O)O)C(=O)N[C@@H](CCCCN)C(=O)N[C@@H](Cc1ccc(O)cc1)C(=O)N[C@@H](CCCNC(=N)N)C(=O)N[C@@H](CC(C)C)C(N)=O)[C@@H](C)O [Compound 26] (Palmitoyl-GGYQKKLR[dP]HTDKYRL-NH2; C-terminus assumed) | 91.2 | 88 | 144 | 4.5 | 2 | greater than that of compound 48 | 4.39 ± 1.33 ×10^3 μl | 3.60 ± 1.89 ×10^3 μl | 5.14 ± 2.22 ×10^3 μl | 5.03 ± 1.97 ×10^3 μl | 4.15 ± 1.97 ×10^3 μl | 5.92 ± 1.73 ×10^3 μl | 3.74 ± 2.12 ×10^3 μl | 7.11 ± 2.82 ×10^3 μl | acted as a functional antagonist to elicit release of bone marrow PMNs in a dose responsive fashion
2 | < 30 | 2.6 | 2 | 90 | CCCCCCCCCCCCCCCC(=O)N[C@@H](CCSC)C(=O)NCC(=O)N[C@@H](Cc1ccc(O)cc1)C(=O)N[C@@H](CCC(N)=O)C(=O)N[C@@H](CCCCN)C(=O)N[C@@H](CCCCN)C(=O)N[C@@H](CC(C)C)C(=O)N[C@@H](CCCNC(=N)N)C(=O)N[C@@H](CO)C(=O)N[C@@H](CCSC)C(=O)N[C@H](C(=O)N[C@@H](CC(=O)O)C(=O)N[C@@H](CCCCN)C(=O)N[C@@H](Cc1ccc(O)cc1)C(=O)N[C@@H](CCCNC(=N)N)C(=O)N[C@@H](CC(C)C)C(N)=O)[C@@H](C)O [Compound 48] (Palmitoyl-MGYQKKLRSMTDKYRL-NH2) | – | – | – | – | – | – | – | – | – | – | – | – | – | – | –
